Assay results from PubChem BioAssay (NCI).
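Following 48 hours of exposure in 96-well plates, responses at five concentrations were used to interpolate endpoints linearly. Definition used: TGI = concentration required for complete inhibition of growth.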

Tests used:
Test in all cases: NCI tumour cell line growth inhibition, 48 h
[1] = tested on: 786-0 renal
[2] = tested on: A498 renal
[3] = tested on: A549 NSCLC
[4] = tested on: ACHN renal
[5] = tested on: CAKI-1 renal
[6] = tested on: CCRF-CEM leukemia
[7] = tested on: COLO 205 colon
[8] = tested on: DLD-1 colon
[9] = tested on: DMS 114 small cell lung
[10] = tested on: DMS 273 small cell lung
[11] = tested on: EKVX NSCLC
[12] = tested on: HCT-116 colon
[13] = tested on: HCT-15 colon
[14] = tested on: HL-60(TB) leukemia
[15] = tested on: HOP-18 NSCLC
[16] = tested on: HOP-62 NSCLC
[17] = tested on: HOP-92 NSCLC
[18] = tested on: HT29 colon
[19] = tested on: IGROV1 ovarian
[20] = tested on: K-562 leukemia
[21] = tested on: KM12 colon
[22] = tested on: KM20L2 colon
[23] = tested on: LOX IMVI melanoma
[24] = tested on: LXFL 529 NSCLC
[25] = tested on: M14 melanoma
[26] = tested on: M19-MEL melanoma
[27] = tested on: MALME-3M melanoma
[28] = tested on: MOLT-4 leukemia
[29] = tested on: NCI-H226 lung
[30] = tested on: NCI-H23 lung
[31] = tested on: NCI-H460 lung
[32] = tested on: OVCAR-3 ovarian
[33] = tested on: OVCAR-4 ovarian
[34] = tested on: OVCAR-5 ovarian
[35] = tested on: OVCAR-8 ovarian
[36] = tested on: RPMI-8226 leukemia
[37] = tested on: RXF 393 renal
[38] = tested on: SF-268 CNS
[39] = tested on: SF-295 CNS
[40] = tested on: SF-539 CNS
[41] = tested on: SK-MEL-2 melanoma
[42] = tested on: SK-MEL-28 melanoma
[43] = tested on: SK-MEL-5 melanoma
[44] = tested on: SN12C renal
[45] = tested on: SNB-19 CNS
[46] = tested on: SNB-75 CNS
[47] = tested on: SNB-78 CNS
[48] = tested on: SR leukemia
[49] = tested on: SW-620 colon
[50] = tested on: TK-10 renal
[51] = tested on: U251 CNS
[52] = tested on: UACC-257 melanoma
[53] = tested on: UACC-62 melanoma
[54] = tested on: UO-31 renal
[55] = tested on: XF 498 CNS
[56] = tested on: HCC-2998 colon
[57] = tested on: NCI-H522 lung
[58] = tested on: SK-OV-3 ovarian

Measured: TGI

CC(=O)OC1COC(N2C(=O)C(=O)c3c(C)cc(Cl)nc32)C(OC(C)=O)C1OC(C)=O (stereo not given)
not listed: [56] | [57] | [58]
> 100 µM: all other assays above

CCCOC(=O)C1CCC(=O)N1C(=O)C(Cl)Cl (stereo not given)
not listed: [37] | [40] | [48]
> 100 µM: all other assays above

COC1CCC(=C2C(=O)OC(C)(C)OC2=O)N1 (stereo not given)
not listed: [2] | [17] | [32] | [43] | [47] | [48]
> 100 µM: all other assays above

COC(=O)C1Cc2c([nH]c3ccccc23)[C@H](CC(C)C)N1 (stereo not given in full)
not listed: [5] | [13] | [31] | [33] | [43]
> 100 µM: all other assays above
